In US20020090341A1, “Method” (NYCOMED IMAGING AS, priority 1997, published 2002):
Read-outs that look alike come from different tables or passages of the source.

Tests used:
[1] = tested on: ex vivo guinea pig hearts; conditions: for T1 relaxation time: LV tissue, 0.234 T
Procedure: Guinea pigs (450-500 g) were anaesthetised with sodium pentobarbital (intraperiotenal injection 100 mg). Hearts were rapidly excised and connected to the aortic cannula of a standard Langendorff perfusion system with conditions preset at 37° C. Perfusion with glucose-containing Krebs Henseleit's bicarbonate buffer (Krebs buffer) was maintained in the constant flow mode during the entire experiment by use of a finely adjustable pump. Under normal perfusion conditions coronary flow rate (CFR) was […] and during global, low flow ischemia 0.25 ml/min (92% reduction of normal CFR). Left ventricular (LV) developed pressure (LVDP) was measured by use of a LV fluid-filled balloon connected to a pressure transducer and recording device. At the end of the experiments excised samples from the LV were freeze-clamped, freeze-dried and prepared for analysis of LV contents of Mn metal by atomic absorbtion spectrophotometry and of ATP by high pressure liquid chromatography. Fresh, non-clamped LV samples were taken for immediate (within 30 min) measurements of tissue longitudinal (T1) relaxation time by use of a Bruker Minispec PC 110 spectrometer operating at 0.234 T and at a proton frequency of 10 MHz.
In normal perfusion experiments (series A) hearts were subjected to a 20 min control period before being perfused for 5 min with ascending concentrations (0-3000 μM) of MnDPDP present in the Krebs buffer. This was followed by 5 min perfusion with buffer only to ensure an effective washout of residual extracellular MnDPDP. In global ischemia experiments hearts were perfused at low flow (92% CFR reduction) with normal Krebs buffer. After different durations (0, 15, 30, 90, and 120 min) of ischemia MnDPDP (1000 μM, 3000 μM) was included in the buffer for a final 5 min period of low flow ischemia. The experiments were ended by 5 min perfusion at normal flow with anoxic and calcium-free Krebs buffer to ensure washout of residual extracellular MnDPDP without reactivating normal cardiac function. In the results (series B) the ischemia durations are presented as 0-5 min, 15-20 min, 30-35 min, 90-95 min, and 120-125 min.

[2] = tested on: regionally ischemic heart; conditions: for Myocardial enhancement: normal myocardium
Procedure: Sprague-Dawley rats (250-300 g) were anaesthetised with 50 mg/kg sodium pentobarbital and mechanically ventilated after tracheostomy. For bolus injection of the contrast agent, a catheter was placed in the femoral vein. In order to produce regional ischemia, left thoracotomy was performed followed by occlusion of the anterior branch of the left coronary artery. The potential of various doses of MnDPDP in demarcating regional ischemia was determined. Four groups of animals were designed, each group (n=7-8 rats) received one bolus dose (1 ml/kg) of MnDPDP (0.005, 0.010, 0.020, or 0.040 mmol/kg). MR imaging was performed between 15-20 mins after acute coronary occlusion.
ECG-gated inversion recovery echoplanar images were acquired using a GE Omega 2.0 T system and a home-built 5.6 cm birdcage imaging coil. A blipped EPI of 64×64 points to define a […] (FOV) of 40×40 mm was used. TE was set to 10 msec by acquiring an asymmetric echo. Inversion recovery was accomplished using a composite non-selective inversion pulse which was carefully optimized prior to administration of the contrast medium. Shortly after the occlusion of the coronary vessel (15-25 mins), IR EP imaging was used to monitor bolus passage of MnDPDP through the regionally ischemic heart. Fully relaxed T1-sensitive inversion recovery EP images (TR=5 s) were acquired in a set of 16 images. Then, 32 inversion-recovery echoplanar images every 2 secs were obtained with inversion time of 700 msecs (to nullify myocardial signal) to monitor the dynamic T1 changes in myocardial signal intensity during the passage of the contrast medium. Changes in myocardial signal as a function of time were plotted. ROIs were obtained from non-ischemic and ischemic myocardium as well as from LV chamber blood. ROIs were determined on images acquired post-contrast injection, where the ischemic region is clearly defined. Alterations in signal intensity were referred to that of fully relaxed intensity (=100%).
At the conclusion of the imaging protocol, the presence of coronary occlusion and acute ischemia was confirmed at postmortem by injecting 0.5 ml/kg phthalocyanine blue dye intravenously. Blue dye was then allowed to circulate for 3 mins before the heart was excised.

[3] = MnDPDP 300 μM, versus control hearts
[4] = MnDPDP 1000 μM, versus control hearts
[5] = MnDPDP 3000 μM, versus control hearts

Question: Which results are given for `Cc1ncc(COP(=O)(O)O)c(CN(CCN(CC(=O)[O-])Cc2c(COP(=O)(O)O)cnc(C)c2O)CC(=O)[O-])c1O.[Mn+2]` [MnDPDP, manganese (II) chelate of N,N′-bis-(pyridoxal-5-phosphate)-ethylenediamine-N,N′-diacetic acid]?
Answer: Tissue Mn content ([1]; MnDPDP 30 μM 5 min, then 5 min washout, n = 6, mean (SD)): 11.0(1.5) μmole/100 g dry wt; T1 relaxation time ([1]; MnDPDP 30 μM, n = 6, mean (SD)): 871(93) msec; Tissue Mn content ([1]; MnDPDP 100 μM 5 min, then 5 min washout, n = 6, mean (SD)): 12.2(2.4) μmole/100 g dry wt; T1 relaxation time ([1]; MnDPDP 100 μM, n = 6, mean (SD)): 808(81) msec; depression of LVDP ([1]; MnDPDP 300 μM): 10%; Tissue Mn content ([1]; MnDPDP 300 μM 5 min, then 5 min washout, n = 6, mean (SD)): 23.2(4.1) μmole/100 g dry wt; fold increase in Mn content [1, 3]: 5-6 fold; reduction in T1 [1, 3]: 40%; T1 relaxation time ([1]; MnDPDP 300 μM, n = 6, mean (SD)): 619(18) msec; Tissue Mn content ([1]; MnDPDP 1000 μM 5 min, then 5 min washout, n = 6, mean (SD)): 45.4(10.8) μmole/100 g dry wt; factor by which tissue Mn content was raised above the control level in non-treated hearts ([1]; MnDPDP 1000 μM at onset (0-5 min) of ischemia): 2-3; Tissue Mn content ([1]; MnDPDP 1000 μM during last 5 min, ischemia 0-5 min, n = 4, mean (SD)): 10.5(3.6) μmole/100 g dry wt; Tissue Mn content ([1]; MnDPDP 1000 μM during last 5 min, ischemia 15-20 min, n = 4, mean (SD)): 9.9(2.3) μmole/100 g dry wt; Tissue Mn content ([1]; MnDPDP 1000 μM during last 5 min, ischemia 30-35 min, n = 4, mean (SD)): 4.3(1.6) μmole/100 g dry wt; Tissue Mn content ([1]; MnDPDP 1000 μM during last 5 min, ischemia 90-95 min, n = 4, mean (SD)): 5.7(2.4) μmole/100 g dry wt; Tissue Mn content ([1]; MnDPDP 1000 μM during last 5 min, ischemia 120-125 min, n = 4, mean (SD)): 5.6(2.3) μmole/100 g dry wt; fold rise in Mn content [1, 4]: 11 fold; reduction in T1 values [1, 4]: 55%; T1 relaxation time ([1]; MnDPDP 1000 μM, n = 6, mean (SD)): 461(85) msec; Tissue Mn content ([1]; MnDPDP 3000 μM 5 min, then 5 min washout, n = 6, mean (SD)): 70.4(14.9) μmole/100 g dry wt; factor by which tissue Mn content was raised above the control level in non-treated hearts ([1]; MnDPDP 3000 μM at onset (0-5 min) of ischemia): 4-5; Tissue Mn content ([1]; MnDPDP 3000 μM during last 5 min, ischemia 0-5 min, n = 4, mean (SD)): 16.5(2.4) μmole/100 g dry wt; Tissue Mn content ([1]; MnDPDP 3000 μM during last 5 min, ischemia 15-20 min, n = 4, mean (SD)): 12.9(4.0) μmole/100 g dry wt; Tissue Mn content ([1]; MnDPDP 3000 μM during last 5 min, ischemia 30-35 min, n = 4, mean (SD)): 6.0(2.2) μmole/100 g dry wt; Tissue Mn content ([1]; MnDPDP 3000 μM during last 5 min, ischemia 90-95 min, n = 4, mean (SD)): 7.2(2.8) μmole/100 g dry wt; fold rise in Mn content [1, 5]: 17 fold; reduction in T1 values [1, 5]: 70%; T1 relaxation time ([1]; MnDPDP 3000 μM, n = 6, mean (SD)): 341(46) msec; tissue Mn contents, normal perfusion conditions relative to early ischemic conditions (0-5 min) ([1]; Table 1 versus Table 3): approximately 4 times; LVDP after washout ([1]; following 5 min of MnDPDP washout): returns rapidly to control values; LVDP during perfusion ([1]; higher concentrations of MnDPDP): falls rapidly; tissue Mn content compared with normally perfused non-treated hearts ([1]; ischemic durations of 30-35 min, 90-95 min, and 120-125 min): not significantly different; delineation of the ischemic region ([2]; 0.005 mmol/kg): insufficient to provide clear delineation of the ischemic region; delineation of the ischemic region ([2]; 0.010, 0.020, and 0.040 mmol/kg): the ischemic region was identified as a region of very low signal; Myocardial enhancement ([2]; 5 micromole/kg bolus): 23±2 % of fully relaxed images; Myocardial enhancement ([2]; 10 micromole/kg bolus): 28±2 % of fully relaxed images; Myocardial enhancement ([2]; 20 micromole/kg bolus): 34±5 % of fully relaxed images; Myocardial enhancement ([2]; 40 micromole/kg bolus): 48±4 % of fully relaxed images
